Reference: patent US20260234124A1, “Substituted Pyrazolyl-Pyridinyl Compounds as Ligand Directed Degraders of IRAK3” (Celgene Corporation, priority 2022, published 2026)

Each compound was assayed against T1, IRAK3 (Homo sapiens, UniProt Q9Y616) (assay: IRAK endogenous HTRF degradation assay (Total-IRAK3 HTRF kit)). Conditions: endogenous IRAK3, overnight incubation; % Dmax = 100 − Ymin.
T1 sequence (Q9Y616 1-596): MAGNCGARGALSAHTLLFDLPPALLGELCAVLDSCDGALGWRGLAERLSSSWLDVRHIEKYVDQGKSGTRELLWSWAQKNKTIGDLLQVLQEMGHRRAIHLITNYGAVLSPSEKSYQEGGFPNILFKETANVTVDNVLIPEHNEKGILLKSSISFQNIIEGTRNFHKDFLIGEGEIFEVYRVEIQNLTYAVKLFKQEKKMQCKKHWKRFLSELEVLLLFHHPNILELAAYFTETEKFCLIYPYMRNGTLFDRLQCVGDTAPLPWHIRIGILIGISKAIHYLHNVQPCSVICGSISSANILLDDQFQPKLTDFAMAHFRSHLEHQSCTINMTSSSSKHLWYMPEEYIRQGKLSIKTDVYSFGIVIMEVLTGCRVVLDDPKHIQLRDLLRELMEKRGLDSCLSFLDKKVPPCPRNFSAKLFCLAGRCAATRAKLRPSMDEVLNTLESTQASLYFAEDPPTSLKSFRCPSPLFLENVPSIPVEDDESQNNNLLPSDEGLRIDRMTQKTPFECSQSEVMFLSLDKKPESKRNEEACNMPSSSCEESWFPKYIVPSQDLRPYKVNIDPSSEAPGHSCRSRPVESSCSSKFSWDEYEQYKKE
Assay type: cell-based
Design: IRAK Endogenous HTRF Degradation Assay; endogenous in cells
Procedure: Example B2. IRAK Endogenous HTRF Degradation Assay
Cells (~50k) were plated in Cisbio 96-well low volume white plates (Cisbio: cat #66PL96005). Compounds were dissolved in DMSO and a 3-fold serial dilution was performed using a TECAN D300E. Cells were incubated with the compound overnight. Total-IRAK3 HTRF kit from Cisbio was used for degradation analysis (Cisbio: 63ADK101PEH). Cryptate and D2 antibodies were diluted in Detection buffer as per manufacturers recommendation. Then 2 μL of each solution was added to 16 μL lysate. Buffer control (lysis buffer detection buffer), Cryptate control (lysis buffer+cryptate antibody+detection buffer), and Negative control (lysis buffer+cryptate antibody+D2 antibody) were made as per manufacturers recommendation. Post incubation with antibodies the HTRF signal was measured using a Perkin Elmer Envision reader and the HTRF signal was calculated using formula: (Emission at 665 nm/Emission at 615 nm)*10,000. All HTRF values were normalized to the average value of DMSO. The average value of the DMSO control wells were set to equal 100% of the relative IRAK3 protein levels. Normalized luminescence values were plotted on a graph as a function of compound concentration. Compound concentration was plotted on the x-axis and the corresponding normalized IRAK3 protein levels on the y-axis. The EC50 value (the half-maximum effective concentration) of a compound for the degradation of the IRAK3 was calculated using a four-parameter logistic model (sigmoidal dose-response model) (FIT=(A+{(B−A)/1+[(C/x)D]})) where C is the inflection point (EC50), D is the […], and A and B are the low and high limits of the fit, respectively). The Ymin was calculated by determining the lowest percentage of target protein remaining following compound treatment. Dmax was calculated from Ymin (% Dmax=100−Ymin).
Using these assays, IC50, Dmax, EC50, and DC50 values of the following compounds were determined. Dmax is defined as the maximum percent degradation achieved and DC50 is the concentration at which 50% degradation is achieved.

Dmax	Structure (SMILES)
21%	Cc1ncsc1-c1ccc(CNC(=O)[C@@H]2C[C@@H](O)CN2C(=O)[C@@H](NC(=O)COCCOCCOCCOCCN2CCC(n3cc(-c4cnc(N)c(O[C@H](C)c5c(Cl)ccc(F)c5Cl)c4)cn3)CC2)C(C)(C)C)cc1 [Compound 4, (2S,4R)-1-((S)-17-(4-(4-(6-amino-5-((R)-1-(2,6-dichloro-3-fluorophenyl)ethoxy)pyridin-3-yl)-1H-pyrazol-1-yl)piperidin-1-yl)-2-(tert-butyl)-4-oxo-6,9,12,15-tetraoxa-3-azaheptadecanoyl)-4-hydroxy-N-(4-(4-methylthiazol-5-yl)benzyl)pyrrolidine-2-carboxamide]
23%	C[C@@H](Oc1cc(-c2cnn(C3CCN(CCOCCNC(=O)COc4cccc5c4C(=O)N(C4CCC(=O)NC4=O)C5=O)CC3)c2)cnc1N)c1c(Cl)ccc(F)c1Cl (stereo partly drawn) [Compound 9, N-(2-(2-(4-(4-(6-amino-5-((R)-1-(2,6-dichloro-3-fluorophenyl)ethoxy)pyridin-3-yl)-1H-pyrazol-1-yl)piperidin-1-yl)ethoxy)ethyl)-2-((2-(2,6-dioxopiperidin-3-yl)-1,3-dioxoisoindolin-4-yl)oxy)acetamide]
73%	C[C@@H](Oc1cc(-c2cnn(C3CCN(C4CCC5(CC4)CCN(C(=O)c4ccc6c(c4)CN(C4CCC(=O)NC4=O)C6=O)CC5)CC3)c2)cnc1N)c1c(Cl)ccc(F)c1Cl (stereo partly drawn) [Compound 20, 3-(5-(9-(4-(4-(6-amino-5-((R)-1-(2,6-dichloro-3-fluorophenyl)ethoxy)pyridin-3-yl)-1H-pyrazol-1-yl)piperidin-1-yl)-3-azaspiro[5.5]undecane-3-carbonyl)-1-oxoisoindolin-2-yl)piperidine-2,6-dione]
35%	Cc1ncsc1-c1ccc(CNC(=O)[C@@H]2C[C@@H](O)CN2C(=O)[C@@H](NC(=O)COCCOCCN2CCC(n3cc(-c4cnc(N)c(O[C@H](C)c5c(Cl)ccc(F)c5Cl)c4)cn3)CC2)C(C)(C)C)cc1 [Compound 2, (2S,4R)-1-((S)-2-(2-(2-(2-(4-(4-(6-amino-5-((R)-1-(2,6-dichloro-3-fluorophenyl)ethoxy)pyridin-3-yl)-1H-pyrazol-1-yl)piperidin-1-yl)ethoxy)ethoxy)acetamido)-3,3-dimethylbutanoyl)-4-hydroxy-N-(4-(4-methylthiazol-5-yl)benzyl)pyrrolidine-2-carboxamide]
41%	Cc1ncsc1-c1ccc(CNC(=O)[C@@H]2C[C@@H](O)CN2C(=O)[C@@H](NC(=O)CCCN2CCC(n3cc(-c4cnc(N)c(O[C@H](C)c5c(Cl)ccc(F)c5Cl)c4)cn3)CC2)C(C)(C)C)cc1 [Compound 1, (2S,4R)-1-((S)-2-(4-(4-(4-(6-amino-5-((R)-1-(2,6-dichloro-3-fluorophenyl)ethoxy)pyridin-3-yl)-1H-pyrazol-1-yl)piperidin-1-yl)butanamido)-3,3-dimethylbutanoyl)-4-hydroxy-N-(4-(4-methylthiazol-5-yl)benzyl)pyrrolidine-2-carboxamide]
65%	C[C@@H](Oc1cc(-c2cnn(C3CCN(CCNC(=O)COc4ccc5c(c4)C(=O)N(C4CCC(=O)NC4=O)C5=O)CC3)c2)cnc1N)c1c(Cl)ccc(F)c1Cl (stereo partly drawn) [Compound 13, N-(2-(4-(4-(6-amino-5-((R)-1-(2,6-dichloro-3-fluorophenyl)ethoxy)pyridin-3-yl)-1H-pyrazol-1-yl)piperidin-1-yl)ethyl)-2-((2-(2,6-dioxopiperidin-3-yl)-1,3-dioxoisoindolin-5-yl)oxy)acetamide]
42%	Cc1ncsc1-c1ccc(CNC(=O)[C@@H]2C[C@@H](O)CN2C(=O)[C@@H](NC(=O)COCCOCCOCCN2CCC(n3cc(-c4cnc(N)c(O[C@H](C)c5c(Cl)ccc(F)c5Cl)c4)cn3)CC2)C(C)(C)C)cc1 [Compound 3, (2S,4R)-1-((S)-14-(4-(4-(6-amino-5-((R)-1-(2,6-dichloro-3-fluorophenyl)ethoxy)pyridin-3-yl)-1H-pyrazol-1-yl)piperidin-1-yl)-2-(tert-butyl)-4-oxo-6,9,12-trioxa-3-azatetradecanoyl)-4-hydroxy-N-(4-(4-methylthiazol-5-yl)benzyl)pyrrolidine-2-carboxamide]
